Laboratory results taken from patent publication US20240216369A1, “THE USE OF A SPLICING MODULATOR FOR A TREATMENT SLOWING PROGRESSION OF HUNTINGTON'S DISEASE” (Novartis AG, priority 2019, published 2024).

What was measured:
mHTT = assay: Mutant and total HTT multiplex HTRF assay in Q48 HTT human embryonic stem cell line: mHTT; assay type: cell-based; conditions: Q48 HTT hESC, 48 hours
Experimental: (§1) The multiplex assay is performed in human embryonic stem cells (hESCs) which have been derived by Genea Biocells from human blastocysts of HD donors. Cells are plated at a density of 10,000 cells/well into 384-well collagen coated plates and left to adhere for 24 hours, compounds 1 to 82 are then added to cells and incubated for 48 hours (37° C., 5% CO2), cells are then lysed and the contents split into a black 384-well plate.
(§2) The black plates have a combination of HTRF labeled monoclonal antibodies added which recognize discrete areas of the HTT protein, the 2B7-Tb “donor” antibody (0.2 ng/well) recognizes a sequence at the N-terminus of the protein, an MW1-Alexa488 “acceptor 1” antibody (30 ng/well) recognizes an area in the polyQ region, whereas a MAB2166-d2 “acceptor 2” antibody (6 ng/well) recognizes a sequence beyond the polyQ region. The 2B7 antibody was obtained from Coriell (CH02024), the MW1 antibody from Millipore (MABN2427), and the MAB2166 antibody from Millipore (1HU-4C8).
(§3) These detection reagents are incubated with the cell lysate at room temperature for 4-6 hours before having their fluorescence quantified at 615 nm (donor) and 535 nm and 665 nm (acceptor 1 and 2 respectively). The donor/acceptor ratio between these signals indicates the relative quantities of mHTT and tHTT proteins. As shown in the Table 1, compounds 1 to 82 as described therein and in Table 2, had the following pIC50 values.

tHTT = assay: Mutant and total HTT multiplex HTRF assay in Q48 HTT human embryonic stem cell line: tHTT; assay type: cell-based; conditions: Q48 HTT hESC, 48 hours
Experimental: as §1, §2, §3

Compound	Rating (based on mHTT potency) (mHTT)	mHTT pIC50 (mHTT)	tHTT pIC50 (tHTT)
CN(c1ccc(-c2cc3cnn(C)c3cc2O)nn1)C1CC(C)(C)NC(C)(C)C1 [Compound 28, 1-methyl-5-(6-(methyl(2,2,6,6-tetramethylpiperidin-4-yl)amino)pyridazin-3-yl)-1H-indazol-6-ol]	**** (a pIC50 value between 7.0 and 7.5 is indicated by four stars (****))	7.111	7.1045
CCn1ccc2cc(O)c(-c3ccc(OC4CC(C)(C)NC(C)(C)C4)nn3)cc2c1=O [Compound 24, 2-ethyl-6-hydroxy-7-(6-((2,2,6,6-tetramethylpiperidin-4-yl)oxy)pyridazin-3-yl)isoquinolin-1(2H)-one]	**** (a pIC50 value between 7.0 and 7.5 is indicated by four stars (****))	7.186	7.168
CN(c1nnc(-c2ccc(-c3cn[nH]c3)cc2O)s1)C1CC(C)(C)NC(C)(C)C1 [Compound 13, 2-(5-(methyl(2,2,6,6-tetramethylpiperidin-4-yl)amino)-1,3,4-thiadiazol-2-yl)-5-(1H-pyrazol-4-yl)phenol]	**** (a pIC50 value between 7.0 and 7.5 is indicated by four stars (****))	7.3545	7.383
CC1(C)CC(Oc2ccc(-c3cc4ccc(O)cc4cc3O)nn2)CC(C)(C)N1 [Compound 37, 3-(6-(2,2,6,6-tetramethylpiperidin-4-yloxy)pyridazin-3-yl)naphthalene-2,7-diol]	*** (a pIC50 value between 6.5 and 7.0 is indicated by three stars (***))	6.98	7.121
CN(c1ccc(-c2cc(Cl)c(-c3cn[nH]c3)cc2O)nn1)C1CC(C)(C)NC(C)(C)C1 [Compound 14, 4-chloro-2-(6-(methyl(2,2,6,6-tetramethylpiperidin-4-yl)amino)pyridazin-3-yl)-5-(1H-pyrazol-4-yl)phenol]	**** (a pIC50 value between 7.0 and 7.5 is indicated by four stars (****))	7.35	7.389
CN(c1nnc(-c2cc3cc(C#N)ccc3s2)s1)C1CC(C)(C)NC(C)(C)C1 [Compound 77, 2-(5-(methyl(2,2,6,6-tetramethylpiperidin-4-yl)amino)-1,3,4-thiadiazol-2-yl)benzo[b]thiophene-5-carbonitrile]	** (a pIC50 value between 6 and 6.5 is indicated by two stars (**))	6.137	6.1615
CN(c1ccc(-c2ccc3nccn3c2)nn1)C1CC(C)(C)NC(C)(C)C1 [Compound 81, 6-(imidazo[1,2-a]pyridin-6-yl)-N-methyl-N-(2,2,6,6-tetramethylpiperidin-4-yl)pyridazin-3-amine]		<5	<5
Cc1cnc2cc(O)c(-c3ccc(N(C)C4CC(C)(C)NC(C)(C)C4)nn3)cc2n1 [Compound 46, 2-methyl-7-(6-(methyl(2,2,6,6-tetramethylpiperidin-4-yl)amino)pyridazin-3-yl)quinoxalin-6-ol]	*** (a pIC50 value between 6.5 and 7.0 is indicated by three stars (***))	6.8485	6.778
CN(c1ccc(-c2cc3ccc(C#N)nc3cc2O)nn1)C1CC(C)(C)NC(C)(C)C1 [Compound 64, 7-hydroxy-6-(6-(methyl(2,2,6,6-tetramethylpiperidin-4-yl)amino)pyridazin-3-yl)quinoline-2-carbonitrile]	*** (a pIC50 value between 6.5 and 7.0 is indicated by three stars (***))	6.5945	6.5885
CC1(C)CC(Oc2ccc(-c3c(O)cc(-c4cn[nH]c4)cc3F)nn2)CC(C)(C)N1 [Compound 7, 3-fluoro-5-(1H-pyrazol-4-yl)-2-(6-((2,2,6,6-tetramethylpiperidin-4-yl)oxy)pyridazin-3-yl)phenol]	***** (a pIC50 value above 7.5 is indicated by five stars (*****))	7.5265	7.51
CC1(C)CC(Nc2ccc(-c3ccc(-n4cccn4)cc3O)nn2)CC(C)(C)N1 [Compound 12, 5-(1H-pyrazol-1-yl)-2-(6-((2,2,6,6-tetramethylpiperidin-4-yl)amino)pyridazin-3-yl)phenol]	**** (a pIC50 value between 7.0 and 7.5 is indicated by four stars (****))	7.379	7.2825
CN(c1ccc(-c2cc3c(=O)n(C)ccc3cc2O)nn1)C1CC(C)(C)NC(C)(C)C1 [Compound 2, 6-hydroxy-2-methyl-7-(6-(methyl(2,2,6,6-tetramethylpiperidin-4-yl)amino)pyridazin-3-yl)isoquinolin-1(2H)-one]	***** (a pIC50 value above 7.5 is indicated by five stars (*****))	7.73	7.6555
CN(c1ccc(-c2ccc(-n3ccc(N)n3)cc2O)nn1)C1CC(C)(C)NC(C)(C)C1 [Compound 4, 5-(3-amino-1H-pyrazol-1-yl)-2-(6-(methyl(2,2,6,6-tetramethylpiperidin-4-yl)amino)pyridazin-3-yl)phenol]	***** (a pIC50 value above 7.5 is indicated by five stars (*****))	7.6	7.5845
CN(c1ccc(-c2cc3c(cc2O)-c2nc(N)sc2C3)nn1)C1CC(C)(C)NC(C)(C)C1 [Compound 33, 2-amino-6-(6-(methyl(2,2,6,6-tetramethylpiperidin-4-yl)amino)pyridazin-3-yl)-8H-indeno[1,2-d]thiazol-5-ol]	**** (a pIC50 value between 7.0 and 7.5 is indicated by four stars (****))	7.0085	7.001
COc1cc(-c2cn[nH]c2)c(F)c(F)c1-c1nnc(N(C)C2CC(C)(C)NC(C)(C)C2)s1 [Compound 65, 5-(2,3-difluoro-6-methoxy-4-(1H-pyrazol-4-yl)phenyl)-N-methyl-N-(2,2,6,6-tetramethylpiperidin-4-yl)-1,3,4-thiadiazol-2-amine]	*** (a pIC50 value between 6.5 and 7.0 is indicated by three stars (***))	6.5865	6.5835
CN(c1ccc(-c2cc3ncccc3cc2O)nn1)C1CC(C)(C)NC(C)(C)C1 [Compound 31, 7-(6-(methyl(2,2,6,6-tetramethylpiperidin-4-yl)amino)pyridazin-3-yl)quinolin-6-ol]	**** (a pIC50 value between 7.0 and 7.5 is indicated by four stars (****))	7.0275	7.0015
Oc1cc(-c2cn[nH]c2)ccc1-c1ccc(N2C[C@H]3CNC[C@H]3C2)nn1 [Compound 74, 2-(6-((3aR,6aS)-hexahydropyrrolo[3,4-c]pyrrol-2(1H)-yl)pyridazin-3-yl)-5-(1H-pyrazol-4-yl)phenol]	** (a pIC50 value between 6 and 6.5 is indicated by two stars (**))	6.03	6.02
CN(c1ccc(-c2cc3ccc(OCCC(C)(C)O)cc3cc2O)nn1)C1CC(C)(C)NC(C)(C)C1 [Compound 68, 7-(3-hydroxy-3-methylbutoxy)-3-(6-(methyl(2,2,6,6-tetramethylpiperidin-4-yl)amino)pyridazin-3-yl)naphthalen-2-ol]	*** (a pIC50 value between 6.5 and 7.0 is indicated by three stars (***))	6.529	6.488
CC1(C)CC(Oc2ccc(-c3ccc(-n4cccn4)cc3O)nn2)CC(C)(C)N1 [Compound 34, 5-(1H-pyrazol-1-yl)-2-(6-(2,2,6,6-tetramethylpiperidin-4-yloxy)pyridazin-3-yl)phenol]	**** (a pIC50 value between 7.0 and 7.5 is indicated by four stars (****))	7.004	6.9475
CN(c1ccc(-c2cc3c(C(N)=O)nccc3cc2O)nn1)C1CC(C)(C)NC(C)(C)C1 [Compound 51, 6-hydroxy-7-(6-(methyl(2,2,6,6-tetramethylpiperidin-4-yl)amino)pyridazin-3-yl)isoquinoline-1-carboxamide]	*** (a pIC50 value between 6.5 and 7.0 is indicated by three stars (***))	6.801	6.779
CCc1cnc2cc(O)c(-c3ccc(N(C)C4CC(C)(C)NC(C)(C)C4)nn3)cc2c1 [Compound 56, 3-ethyl-6-(6-(methyl(2,2,6,6-tetramethylpiperidin-4-yl)amino)pyridazin-3-yl)quinolin-7-ol]	*** (a pIC50 value between 6.5 and 7.0 is indicated by three stars (***))	6.709	6.709
COc1cc(-c2cnn(C)c2)ccc1-c1nnc(N2CC3(CCNCC3)C2)s1 [Compound 75, 2-(2-methoxy-4-(1-methyl-1H-pyrazol-4-yl)phenyl)-5-(2,7-diazaspiro[3.5]nonan-2-yl)-1,3,4-thiadiazole]	** (a pIC50 value between 6 and 6.5 is indicated by two stars (**))	6.4375	6.4335
